Assay results taken from US20100159012A1, “Conjugates of Therapeutically Active Compounds” (priority 2005, published 2010).

What was measured:
RAW 264.7 cells = assay: Cytotoxicity by 3H-thymidine incorporation in murine RAW 264.7 cells
Description: (§1) The final aldehyde concentrations in the test were 0.01-34 μmol/mL.
(§2) The cytotoxicity of dextran derivatives was evaluated in murine RAW 264.7 cells, an internationally recognized cell line for examination of drug effects.
(§3) Growth inhibition was estimated by the ^3H-thymidine incorporation method. Cells were cultured in flat-bottom flasks at 37° C. Before each experiment the cells were washed and removed by trypsin treatment or scraped from the flask bottom, and an appropriate volume was centrifuged, resuspended, and diluted in growth medium to the desired cell concentration. […] By use of an automated dispenser, 200 μL of cell suspension was added to each well of a microtiter plate. After incubation overnight, the appropriate drug concentration, in triplicate, was added to test wells. Drug-free medium was used as control. ^3H-Thymidine (0.5 μCi) in 20 μL of medium was added the next day, and the plate was harvested and read by liquid scintillation counter (LKB, Finland) after an additional 24 h. The percent growth inhibition of the cells by the drug tested was calculated as [100−(count with drug/control count)×100].
(§4) Dextran with 50% oxidation was used as a positive toxicity control.
(§5) Drug effect and the IC50 were defined as previously described.

[1] = system: Leishmania donovani IS promastigotes; assay: In vitro activity against Leishmania donovani promastigotes (3H-thymidine incorporation); format: cell-based
Description: The in vitro antiparasitic activity was evaluated against Leishmania donovani IS promastigotes. This strain, isolated from a patient in Sudan, was received from the International Reference Center of the Kuvin Center for Infectious Diseases in the Hebrew University of Jerusalem.
Serial dilutions of the tested agents were prepared in RPMI 1640 growth medium. The final AmB concentration in the test ranged from 0.2 to 6 μg/mL. Wells containing drug-free medium served as control. […] Briefly, 96-well plates were seeded with 60,000 promastigotes/well in 200 μL of medium, and test solutions were added 3 h later. After 24 h of incubation, 0.5 μCi/well ^3H-thymidine (in 10% FCS medium) was added, and the cultures were harvested after an additional 24 h. During the experiment the cells were incubated at 25° C. in air. The drug effect and the IC50 of the conjugates were estimated as described before (Example 7).

Sheep erythrocytes = assay: Hemolysis evaluated visually after 1 h incubation at 37° C.; format: cell-based; conditions: visual
[2] = system: RAW 264.7 cells (growth, thymidine incorporation); assay: Cytotoxicity by 3H-thymidine incorporation in murine RAW 264.7 cells; conditions: mouse, RAW 264.7 cells
Description: as §1, §2, §3, §4, §5

[3] = In vitro release of conjugated drug into solution/buffer; format: physicochemical; conditions: after 12 hours in buffer at pH7.4 at 37° C.
Description: About 10% of the conjugated drug was released after 12 hours in a buffer at pH7.4 at 37° C.

[4] = system: Staphylococcus Aureus and E. Coli; assay: Antimicrobial activity, filter paper disc on seeded agar plate; format: cell-based; conditions: 24 hours at 37° C.; 6 mm filter paper; equivalent amounts of drug
Description: The antimicrobial activity of these conjugates was determined as follows: Saline solutions of equivalent amounts of the drug in free form or the imine AG conjugate were absorbed onto a circular filter paper (6 mm in diameter) and placed on a seeded agar plate with Staphylococcus Aureus (10^5/ml) and E. Coli incubated for 24 hours at 37° C.

C[C@@H]1[C@H](O)[C@@H](C)/C=C/C=C/C=C/C=C/C=C/C=C/C=C/[C@H](O[C@@H]2O[C@H](C)[C@@H](O)[C@H](N)[C@@H]2O)C[C@@H]2O[C@](O)(C[C@@H](O)C[C@@H](O)[C@H](O)CC[C@@H](O)C[C@@H](O)CC(=O)O[C@H]1C)C[C@H](O)[C@H]2C(=O)O [Free AmB, Amphotericin B]
toxicity to cells (RAW 264.7 cells; AmB and dextran-AmB conjugates, equivalent AmB amounts): extremely toxic
Toxicity IC50 (RAW 264.7 cells; murine RAW 264.7 cell line, 3H-thymidine incorporation): 9 μgAmB/ml
toxicity/activity to parasites ([1]; AmB and dextran-AmB conjugates): extremely toxic
Antiparasitic activity IC50 ([1]; Leishmania donovani, 3H-thymidine incorporation): 0.05 μgAmB/ml
Hemolysis (Sheep erythrocytes): 16 μgAmB/ml

O=CCCCC=O [Glutaraldehyde]
IC50 at 48 h [2]: < 0.15 µg/mL

Somatostatin-Arabinogalactan Ethanolamine Conjugate: somatostatin conjugated to 32% oxidized AG, reacted with excess ethanolamine
conjugated drug released [3]: About 10%

Native Dextran
IC50 (in vitro cytotoxicity of modified dextran) (RAW 264.7 cells): >5000 µg/mL

gentamicin
inhibition zone [4]: > 20 mm
